Assays:
[1] = Half life in human liver microsomes at 1 uM after 5 to 30 mins by MS analysis in presence of NADPH; assay type: ADME, Microsome
[2] = Tmax in Sprague-Dawley rat at 10 mg/kg, po by LC/MS/MS analysis; assay type: ADME, organism-based; design: dose 10 mg/kg, route oral; settings: in vivo
[3] = Apparent volume of distribution in Sprague-Dawley rat at 2 mg/kg, iv after 24 hrs by LC/MS/MS analysis; assay type: ADME, organism-based; design: dose 2 mg/kg, route intravenous; settings: in vivo, read-out: Vz
[4] = Cmax in monkey at 1 mg/kg, iv after 24 hrs by LC/MS/MS analysis; assay type: ADME, organism-based, Macaca mulatta; design: dose 1 mg/kg, route intravenous; settings: rhesus monkey, in vivo
[5] = Cmax in Sprague-Dawley rat liver at 10 mg/kg, iv by LC/MS/MS analysis; assay type: ADME, organism-based; design: dose 10 mg/kg, route intravenous
[6] = Oral bioavailability in Sprague-Dawley rat at 10 mg/kg after 24 hrs by LC/MS/MS analysis; assay type: ADME, organism-based; settings: in vivo
[7] = Oral bioavailability in Sprague-Dawley rat at 5 mg/kg after 24 hrs by LC/MS/MS analysis; assay type: ADME, organism-based; settings: in vivo
[8] = AUC (0 to infinity) in monkey at 15 mg/kg, po after 24 hrs by LC/MS/MS analysis; assay type: ADME, organism-based, Macaca mulatta; design: time infinity, dose 15 mg/kg, route oral; settings: rhesus monkey, plasma
[9] = AUC (0 to infinity) in Sprague-Dawley rat at 10 mg/kg, po after 24 hrs by LC/MS/MS analysis; assay type: ADME, organism-based; design: time infinity, dose 10 mg/kg, route oral; settings: plasma
Cytochrome P450 2D6 = Cytochrome P450 2D6 (Homo sapiens, UniProt P10635); test: Inhibition of human recombinant CYP2D6 after 30 mins; assay type: ADME
Cytochrome P450 2D6, sequence (P10635 whole entry): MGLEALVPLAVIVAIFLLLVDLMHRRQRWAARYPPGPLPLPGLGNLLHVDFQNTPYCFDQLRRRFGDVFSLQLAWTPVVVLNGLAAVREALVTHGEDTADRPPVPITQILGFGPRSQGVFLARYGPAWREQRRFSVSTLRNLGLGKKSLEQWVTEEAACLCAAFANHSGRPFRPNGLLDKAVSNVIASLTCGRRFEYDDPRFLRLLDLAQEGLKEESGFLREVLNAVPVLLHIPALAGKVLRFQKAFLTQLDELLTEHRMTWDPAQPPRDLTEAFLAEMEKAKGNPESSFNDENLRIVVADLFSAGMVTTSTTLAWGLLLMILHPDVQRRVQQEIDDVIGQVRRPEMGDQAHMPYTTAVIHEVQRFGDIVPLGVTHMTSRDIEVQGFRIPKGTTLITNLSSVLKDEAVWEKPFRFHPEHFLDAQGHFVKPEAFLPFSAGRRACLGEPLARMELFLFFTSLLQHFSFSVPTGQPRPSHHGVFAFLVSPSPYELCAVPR

Hepatocyte [10] = test: Cellular uptake in human hepatocytes assessed per mg of cellular protein association with hepatocyte fraction at 0.378 uM after 1 hr by LC/MS/MS analysis; assay type: ADME, cell-based
[11] = Apparent elimination half life in Sprague-Dawley rat at 5 mg/kg, iv by LC/MS/MS analysis; assay type: ADME, organism-based; design: dose 5 mg/kg, route intravenous; settings: in vivo
[12] = Cmax in Sprague-Dawley rat at 20 mg/kg, po after 24 hrs by LC/MS/MS analysis; assay type: ADME, organism-based; design: dose 20 mg/kg, route oral; settings: in vivo
[13] = Cmax in Sprague-Dawley rat whole blood at 10 mg/kg, iv by LC/MS/MS analysis; assay type: ADME, organism-based; design: dose 10 mg/kg, route intravenous
[14] = AUC (2 to 24 hrs) in Sprague-Dawley rat whole blood at 30 mg/kg, po by LC/MS/MS analysis; assay type: ADME, organism-based; design: time 2-24 hr, dose 30 mg/kg, route oral
[15] = Apparent elimination half life in monkey at 1 mg/kg, iv by LC/MS/MS analysis; assay type: ADME, organism-based, Macaca mulatta; design: dose 1 mg/kg, route intravenous; settings: rhesus monkey, in vivo
Hepatocyte [16] = test: Cellular uptake in human hepatocytes assessed per mg of cellular protein association with hepatocyte fraction at 2.27 uM after 1 hr by LC/MS/MS analysis; assay type: ADME, cell-based
[17] = Intrinsic clearance in CD1 mouse liver microsomes at 1 uM after 5 to 30 mins by MS analysis in presence of NADPH; assay type: ADME, Microsome
Hepatocyte [18] = test: Cellular uptake in human hepatocytes assessed per mg of cellular protein association with nonparenchymal fraction at 0.378 uM after 1 hr by LC/MS/MS analysis; assay type: ADME, cell-based
[19] = Cmax in Sprague-Dawley rat at 2 mg/kg, iv after 24 hrs by LC/MS/MS analysis; assay type: ADME, organism-based; design: dose 2 mg/kg, route intravenous; settings: in vivo
[20] = Cmax in monkey at 5 mg/kg, po after 24 hrs by LC/MS/MS analysis; assay type: ADME, organism-based, Macaca mulatta; design: dose 5 mg/kg, route oral; settings: rhesus monkey, in vivo
[21] = AUC (0 to infinity) in Sprague-Dawley rat at 2 mg/kg, iv after 24 hrs by LC/MS/MS analysis; assay type: ADME, organism-based; design: time infinity, dose 2 mg/kg, route intravenous; settings: plasma
[22] = AUC (2 to 24 hrs) in Sprague-Dawley rat liver at 30 mg/kg, po by LC/MS/MS analysis; assay type: ADME, organism-based; design: time upper 24 hr, time lower 2 hr, dose 30 mg/kg, route oral
PBMC = test: Cytotoxicity against human PBMC at 0.0031 uM after 18 hrs; assay type: cell-based
[23] = Oral bioavailability in monkey at 5 mg/kg after 24 hrs by LC/MS/MS analysis; assay type: ADME, organism-based, Macaca mulatta; settings: rhesus monkey, in vivo
Hepatitis C virus [24] = test: microbe, parasite or virus in culture; settings: Huh-7, 24 h
Description: Antiviral activity against Hepatitis C virus infected in human Huh7ET cells assessed as inhibition of viral replication after 24 hrs by RT-PCR analysis

Cytochrome P450 1A2 = biological target: T1, Cytochrome P450 1A2 (Homo sapiens, UniProt P05177); test: Inhibition of human recombinant CYP1A2 after 30 mins; assay type: ADME
T1 sequence (P05177 whole entry): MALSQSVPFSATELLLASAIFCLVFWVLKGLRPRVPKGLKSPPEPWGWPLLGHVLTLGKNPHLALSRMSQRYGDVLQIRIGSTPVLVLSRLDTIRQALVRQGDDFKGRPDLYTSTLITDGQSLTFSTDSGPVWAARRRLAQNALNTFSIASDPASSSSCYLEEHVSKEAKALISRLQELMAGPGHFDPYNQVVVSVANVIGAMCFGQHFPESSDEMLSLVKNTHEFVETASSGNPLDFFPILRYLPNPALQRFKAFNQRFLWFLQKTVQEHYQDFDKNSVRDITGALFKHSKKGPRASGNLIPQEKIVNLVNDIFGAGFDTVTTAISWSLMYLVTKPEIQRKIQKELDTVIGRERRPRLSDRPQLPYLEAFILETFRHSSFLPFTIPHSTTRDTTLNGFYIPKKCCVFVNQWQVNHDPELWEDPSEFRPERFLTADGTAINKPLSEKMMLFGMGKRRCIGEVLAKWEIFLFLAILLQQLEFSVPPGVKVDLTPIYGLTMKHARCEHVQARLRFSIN

[25] = Cmax in monkey at 7.5 mg/kg, po after 24 hrs by LC/MS/MS analysis; assay type: ADME, organism-based, Macaca mulatta; design: dose 7.5 mg/kg, route oral; settings: rhesus monkey, in vivo
Cytochrome P450 3A4 = Cytochrome P450 3A4 (Homo sapiens, UniProt P08684); test: Inhibition of human recombinant CYP3A4 after 30 mins; assay type: ADME
Cytochrome P450 3A4, sequence (P08684 whole entry): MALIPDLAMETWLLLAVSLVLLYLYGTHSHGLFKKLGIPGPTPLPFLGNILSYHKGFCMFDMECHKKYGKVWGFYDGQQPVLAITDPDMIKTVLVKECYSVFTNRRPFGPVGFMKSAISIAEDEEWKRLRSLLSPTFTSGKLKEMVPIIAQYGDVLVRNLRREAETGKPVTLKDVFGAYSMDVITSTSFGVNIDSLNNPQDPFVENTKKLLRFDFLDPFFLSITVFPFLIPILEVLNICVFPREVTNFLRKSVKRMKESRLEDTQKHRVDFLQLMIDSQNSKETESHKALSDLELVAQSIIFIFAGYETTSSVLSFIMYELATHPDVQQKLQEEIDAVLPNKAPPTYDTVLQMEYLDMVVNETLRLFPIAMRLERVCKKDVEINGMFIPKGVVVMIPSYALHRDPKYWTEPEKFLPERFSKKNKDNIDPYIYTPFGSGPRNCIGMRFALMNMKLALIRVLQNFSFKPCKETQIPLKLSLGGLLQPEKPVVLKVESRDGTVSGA

[26] = AUC (0 to infinity) in monkey at 1 mg/kg, iv after 24 hrs by LC/MS/MS analysis; assay type: ADME, organism-based, Macaca mulatta; design: time infinity, dose 1 mg/kg, route intravenous; settings: rhesus monkey, plasma
[27] = AUC (2 to 24 hrs) in Sprague-Dawley rat liver at 10 mg/kg, iv by LC/MS/MS analysis; assay type: ADME, organism-based; design: time 2-24 hr, dose 10 mg/kg, route intravenous
[28] = Apparent elimination half life in Sprague-Dawley rat at 2 mg/kg, iv by LC/MS/MS analysis; assay type: ADME, organism-based; design: dose 2 mg/kg, route intravenous; settings: in vivo
[29] = Apparent elimination half life Sprague-Dawley rat at 20 mg/kg, po after 24 hrs by LC/MS/MS analysis; assay type: ADME, organism-based; design: dose 20 mg/kg, route oral; settings: in vivo
Hepatitis C virus [30] = test: microbe, parasite or virus in culture; settings: Huh-7
Description: Antiviral activity against Hepatitis C virus infected in human Huh7ET cells assessed as suppression of full length viral RNA replication after 24 to 72 hrs by luciferase reporter gene assay

[31] = Tmax in Sprague-Dawley rat at 5 mg/kg, po by LC/MS/MS analysis; assay type: ADME, organism-based; design: dose 5 mg/kg, route oral; settings: in vivo
[32] = Apparent elimination half life in monkey at 5 mg/kg, po after 24 hrs by LC/MS/MS analysis; assay type: ADME, organism-based, Macaca mulatta; design: dose 5 mg/kg, route oral; settings: rhesus monkey, in vivo
[33] = Apparent volume of distribution in monkey at 1.4 mg/kg, iv after 24 hrs by LC/MS/MS analysis; assay type: ADME, organism-based, Macaca mulatta; design: dose 1.4 mg/kg, route intravenous; settings: rhesus monkey, in vivo, read-out: Vz
[34] = Tmax in monkey at 5 mg/kg, po by LC/MS/MS analysis; assay type: ADME, organism-based, Macaca mulatta; design: dose 5 mg/kg, route oral; settings: rhesus monkey, in vivo
[35] = Oral bioavailability in monkey at 7.5 mg/kg after 24 hrs by LC/MS/MS analysis; assay type: ADME, organism-based, Macaca mulatta; settings: rhesus monkey, in vivo
Hepatitis C virus [36] = test: microbe, parasite or virus in culture; settings: Huh-7, 72 h
Hepatitis C virus [37] = test: microbe, parasite or virus in culture; settings: Huh-7, 120 h
Description: Antiviral activity against Hepatitis C virus infected in human Huh7ET cells assessed as inhibition of viral replication after 120 hrs by luciferase reporter gene assay

Work on C/C=C/C[C@@H](C)[C@@H](O)[C@H]1C(=O)N[C@@H](CC)C(=O)N(C)C(SCCN(C)C)C(=O)N(C)[C@@H](CC(C)(C)O)C(=O)N[C@@H](C(C)C)C(=O)N(C)[C@@H](CC(C)C)C(=O)N[C@@H](C)C(=O)N[C@H](C)C(=O)N(C)[C@@H](CC(C)C)C(=O)N(C)[C@@H](CC(C)C)C(=O)N(C)[C@@H](C(C)C)C(=O)N1C (single isomer, unassigned) [SCY 635] yielded a half-life at 1 µM [1] of 1.05 h, a Tmax [2] of 8 h and a Vd [3] of 3.37 L/kg. It also gave a Cmax [4] of 2560 ng/mL, a Cmax [5] of 13500 ng/mL and a bioavailability [6] of 23.6%. It also gave a bioavailability [7] of 23.1%, an AUC(0-inf) [8] of 59200 ng·h/mL and an AUC(0-inf) [9] of 26500 ng·h/mL. The IC50 (Cytochrome P450 2D6) was greater than 100000 nM, the Drug uptake (Hepatocyte [10]) was 1.03 ng/mg and the half-life [11] was 22.2 h. The Cmax [12] was 1760 ng/mL, the Cmax [13] was 3360 ng/mL and the AUC(0-t) [14] was 30200 ng·h/mL. For the same compound, the half-life [15] was 22.3 h, the Drug uptake (Hepatocyte [16]) was 6.05 ng/mg and the clearance [17] was 9 µL/min/mg. For the same compound, the Drug uptake (Hepatocyte [18]) was 0.55 ng/mg, the Cmax [19] was 1510 ng/mL and the Cmax [20] was 1810 ng/mL. The AUC(0-inf) [21] was 22500 ng·h/mL, the AUC(0-t) [22] was 141000 ng·h/mL and the Activity (PBMC) was “Non-toxic”. The bioavailability [23] was 17.7%, the EC50 (Hepatitis C virus [24]) was 120 nM and the IC50 (Cytochrome P450 1A2) was greater than 100000 nM. It also gave a Cmax [25] of 1930 ng/mL, an IC50 (Cytochrome P450 3A4) of 58500 nM and an AUC(0-inf) [26] of 31500 ng·h/mL. The AUC(0-t) [27] was 139000 ng·h/mL, the half-life [28] was 26.3 h and the half-life [29] was 23.8 h. The EC50 (Hepatitis C virus [30]) was 130 nM, the Tmax [31] was 4 h and the half-life [32] was 24.6 h. For the same compound, the Vd [33] was 1.69 L/kg, the Tmax [34] was 2 h and the bioavailability [35] was 15.7%. The EC50 (Hepatitis C virus [36]) was 90 nM and the EC50 (Hepatitis C virus [37]) was 150 nM.
